Where two headings read alike, the source gives them in different places.
Legend:
HK2 = biological target: T1, HK2 (Mus musculus, UniProt O08528); test: TPD analysis: intracellular HK2 level; assay type: cell-based, murine; details: for time-dependent HK2 expression after washout: TNBC cells, 1 µM, 12 h treatment then washout, n = 3
T1 construct: endogenous in cells; host or cells: 4T1 cells
T1 sequence (O08528 1-917): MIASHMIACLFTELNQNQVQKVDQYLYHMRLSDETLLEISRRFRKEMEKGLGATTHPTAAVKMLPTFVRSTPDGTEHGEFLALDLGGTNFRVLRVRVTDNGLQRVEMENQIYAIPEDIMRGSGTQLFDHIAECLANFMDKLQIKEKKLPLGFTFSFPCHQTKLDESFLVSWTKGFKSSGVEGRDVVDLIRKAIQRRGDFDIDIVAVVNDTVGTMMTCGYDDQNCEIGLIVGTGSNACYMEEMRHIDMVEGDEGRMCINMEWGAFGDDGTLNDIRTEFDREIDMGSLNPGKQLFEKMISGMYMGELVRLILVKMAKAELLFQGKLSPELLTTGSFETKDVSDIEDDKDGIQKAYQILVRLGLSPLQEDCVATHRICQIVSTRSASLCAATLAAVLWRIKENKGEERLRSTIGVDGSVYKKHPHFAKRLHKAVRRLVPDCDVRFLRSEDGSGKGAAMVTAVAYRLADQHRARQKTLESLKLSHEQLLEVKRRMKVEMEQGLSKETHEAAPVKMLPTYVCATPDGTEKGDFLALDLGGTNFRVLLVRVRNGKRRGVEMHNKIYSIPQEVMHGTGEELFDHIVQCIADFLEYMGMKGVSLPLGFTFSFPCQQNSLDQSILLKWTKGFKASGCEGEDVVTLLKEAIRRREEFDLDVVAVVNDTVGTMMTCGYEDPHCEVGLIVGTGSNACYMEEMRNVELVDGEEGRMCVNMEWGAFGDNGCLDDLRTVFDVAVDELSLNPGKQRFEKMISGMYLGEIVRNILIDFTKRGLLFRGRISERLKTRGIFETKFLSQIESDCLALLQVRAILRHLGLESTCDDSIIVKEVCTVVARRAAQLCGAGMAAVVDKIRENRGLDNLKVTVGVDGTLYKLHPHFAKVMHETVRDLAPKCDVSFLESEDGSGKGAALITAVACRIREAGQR

[1] = ROS generation, DPBF bleaching assay under 671 nm laser; assay type: physicochemical; details: 671 nm laser 40 mW, calculated relative to VPF, n = 5
Procedure: The morphology in distilled water was observed via transmission electron microscopy (TEM; Philips). UV‒vis and fluorescence spectra were measured via a UV‒vis spectrometer (Agilent Technologies) and a fluorescence spectrometer (Hitachi), respectively. ROS generation was quantified via a bleaching assay using 1,3-diphenylisobenzofuran (DPBF; Cat. No. 105481; Sigma Aldrich).
(§1) AVPF and ANanoTAC represent the absorbance at the excitation wavelength (671 nm), whereas SVPF and SNanoTAC denote the slopes of the absorbance intensity over time. […] The resulting data were plotted, and kcat/KM was determined via Prism 10 software (GraphPad).

[2] = system: orthotopic 4T1 TNBC tumor; test: Tumor inhibition in orthotopic TNBC mouse model; assay type: in vivo; details: for complete regression (CR), mice with CR / mice in group: i.v. equivalent 5 mg/kg VPF, n = 5
Procedure: BL imaging was conducted every 4 days following the intraperitoneal injection of D-luciferin. The tumor volumes and body weights were measured every 2 days. Mice with tumor volumes exceeding 500 mm^3 were considered deceased.

4T1 cells [3] = test: Intracellular ROS generation (DCFH-DA); assay type: cell-based, murine; details: 1 μM, 12 h, +L (40 mW, 500 s), hypoxia 1% O2, DCFH-DA
Procedure: Diacetyldichlorofluorescein (DCFH-DA; Cat. No. 4091-99-0, Sigma Aldrich) was used to detect intracellular ROS. […] The cells were then incubated with DCFH-DA for 30 min and subsequently exposed to photoirradiation for 500 s at a power of 40 mW. NIRF images were captured via CLSM.

4T1 cells [4] = details: without photoirradiation, absence (migration) or presence (invasion) of collagen, n = 5
[5] = biological target: T2, matrix metalloproteinase-9 (MMP-9) (Homo sapiens, UniProt P14780); test: Enzymatic cleavage by MMP-9; assay type: biochemical; details: pH 5.5 MES buffer, 37 °C, LC/MS
T2 construct: purchased R&D Systems 911-MP
T2 sequence (P14780 94-707): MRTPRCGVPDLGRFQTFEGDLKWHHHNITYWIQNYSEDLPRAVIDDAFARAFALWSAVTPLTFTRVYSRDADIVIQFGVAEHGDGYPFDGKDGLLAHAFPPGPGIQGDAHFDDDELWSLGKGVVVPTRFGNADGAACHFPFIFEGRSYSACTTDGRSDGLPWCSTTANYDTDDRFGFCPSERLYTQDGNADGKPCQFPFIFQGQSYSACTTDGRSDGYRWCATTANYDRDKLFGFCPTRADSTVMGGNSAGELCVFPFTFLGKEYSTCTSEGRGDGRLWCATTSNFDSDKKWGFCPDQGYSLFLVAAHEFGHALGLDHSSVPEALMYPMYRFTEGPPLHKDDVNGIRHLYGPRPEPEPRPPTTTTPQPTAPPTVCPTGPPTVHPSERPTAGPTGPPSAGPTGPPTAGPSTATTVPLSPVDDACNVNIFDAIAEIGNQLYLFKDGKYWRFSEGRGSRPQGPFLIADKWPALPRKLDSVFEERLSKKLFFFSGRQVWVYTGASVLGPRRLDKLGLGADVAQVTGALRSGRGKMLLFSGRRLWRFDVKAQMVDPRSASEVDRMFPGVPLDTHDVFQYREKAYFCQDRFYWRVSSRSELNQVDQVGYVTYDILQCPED
Procedure: as §1, with “The cleavage rate of each sample was calculated by comparing the peak area to that of an equivalent amount of NanoTAC prior to enzyme incubation. The” for “The”

[6] = system: orthotopic 4T1 TNBC tumor; details: tumors on day 3, flow cytometry, n = 5
Procedure: Following treatment of the TNBC mouse model described above, tumor tissues were collected on day 3 for immune cell population analyses. Single cells were isolated from the tumor samples via a tumor dissociation kit (Cat. No. 130-096-730; Miltenyi Biotechnology). An equal number of cells were incubated with FcBlock (Cat. No. 553142, BD Biosciences) for 5 min to prevent nonspecific IgG binding and then stained with appropriate antibodies to identify the populations of CRT-positive tumor cells (CD45^−CRT^+), mature DCs, CTLs, and regulatory T cells. As in the coculture study, HMGB1 and HSP70 in the tumor supernatants were assessed by western blot, while IL-18, IL-1β, TNF-α, IFN-γ, and IL-10 were measured via ELISA kits.

caspase-3 (CASP3) = biological target: T3, caspase-3 (CASP3) (Homo sapiens, UniProt P42574); test: Enzymatic cleavage by caspase-3; assay type: biochemical; details: pH 5.5 MES buffer, 37 °C, LC/MS
T3 construct: purchased R&D Systems 707-C3/CF
T3 sequence (P42574 29-175 limits assumed): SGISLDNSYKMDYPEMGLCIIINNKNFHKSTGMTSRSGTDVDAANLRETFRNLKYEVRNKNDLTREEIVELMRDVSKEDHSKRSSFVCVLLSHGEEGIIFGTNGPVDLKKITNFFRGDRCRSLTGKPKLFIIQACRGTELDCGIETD
T3 sequence (P42574 176-277 limits assumed): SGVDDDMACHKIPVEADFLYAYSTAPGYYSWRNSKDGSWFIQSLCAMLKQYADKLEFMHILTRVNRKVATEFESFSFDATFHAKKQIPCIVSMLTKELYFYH
Procedure: as §1, with “The cleavage rate of each sample was calculated by comparing the peak area to that of an equivalent amount of NanoTAC prior to enzyme incubation. The” for “The”

Cat-L = biological target: T4, Cat-L (Homo sapiens, UniProt P07711); test: Enzymatic cleavage by Cat-L; assay type: biochemical; details: pH 5.5 MES buffer, 37 °C, LC/MS
T4 construct: purchased R&D Systems 952-CY
T4 sequence (P07711 114-333): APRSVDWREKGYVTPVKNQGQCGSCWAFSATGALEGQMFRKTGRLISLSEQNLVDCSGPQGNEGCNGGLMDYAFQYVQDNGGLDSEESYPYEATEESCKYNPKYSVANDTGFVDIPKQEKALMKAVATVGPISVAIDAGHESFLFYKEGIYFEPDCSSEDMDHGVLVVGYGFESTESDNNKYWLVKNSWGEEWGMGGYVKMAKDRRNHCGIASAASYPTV
Procedure: as §1, with “The cleavage rate of each sample was calculated by comparing the peak area to that of an equivalent amount of NanoTAC prior to enzyme incubation. The” for “The”

Cat-E = biological target: T5, Cat-E (Homo sapiens, UniProt P14091); test: Enzymatic cleavage by Cat-E; assay type: biochemical; details: pH 5.5 MES buffer, 37 °C, LC/MS
T5 construct: purchased R&D Systems 1294-AS
T5 sequence (P14091 54-396): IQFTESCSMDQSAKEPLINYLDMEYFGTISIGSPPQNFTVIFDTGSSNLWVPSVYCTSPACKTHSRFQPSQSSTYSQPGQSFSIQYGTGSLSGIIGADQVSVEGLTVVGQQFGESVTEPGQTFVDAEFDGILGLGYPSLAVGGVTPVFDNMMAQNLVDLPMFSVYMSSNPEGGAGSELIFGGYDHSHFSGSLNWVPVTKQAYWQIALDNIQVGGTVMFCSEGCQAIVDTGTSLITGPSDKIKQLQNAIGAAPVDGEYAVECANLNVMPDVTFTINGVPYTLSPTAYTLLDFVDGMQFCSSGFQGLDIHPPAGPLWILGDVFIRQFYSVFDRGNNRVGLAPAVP
Procedure: as §1, with “The cleavage rate of each sample was calculated by comparing the peak area to that of an equivalent amount of NanoTAC prior to enzyme incubation. The” for “The”

rechallenged 4T1 TNBC = details: day 15 after tumor rechallenge, ELISA, n = 3
Procedure: Sixteen days post-treatment, TNBC mice were inoculated with 4T1 cells (2 × 10^5 cells per mouse) into the fourth mammary fat pad opposite the primary TNBC site. Rechallenged tumor volumes were measured every 2 days. Fifteen days after tumor rechallenge, the population of splenic Tem cells (CD3^+; CD8^+; CD44^+ [Cat. No. 103016, Biolegend]; CD62L^low [Cat. No. 104407, Biolegend]) was analyzed via flow cytometry. Finally, the serum levels of IFN-γ, IL-6, and TNF-α were quantified via ELISA.

Cat-D = biological target: T6, Cat-D (Homo sapiens, UniProt P07339); test: Enzymatic cleavage by Cat-D; assay type: biochemical; details: pH 5.5 MES buffer, 37 °C, LC/MS
T6 construct: purchased R&D Systems 1014-AS
T6 sequence (P07339 65-412): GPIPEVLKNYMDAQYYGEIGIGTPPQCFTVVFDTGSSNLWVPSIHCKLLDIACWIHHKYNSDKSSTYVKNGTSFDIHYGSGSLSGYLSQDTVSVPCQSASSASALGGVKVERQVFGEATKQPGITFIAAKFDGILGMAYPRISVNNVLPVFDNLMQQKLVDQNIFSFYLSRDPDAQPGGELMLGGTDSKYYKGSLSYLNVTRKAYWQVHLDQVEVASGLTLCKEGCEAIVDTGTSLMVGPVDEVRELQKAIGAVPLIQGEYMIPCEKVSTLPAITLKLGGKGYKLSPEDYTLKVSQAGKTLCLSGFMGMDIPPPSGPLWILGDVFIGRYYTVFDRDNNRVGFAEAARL
Procedure: as §1, with “The cleavage rate of each sample was calculated by comparing the peak area to that of an equivalent amount of NanoTAC prior to enzyme incubation. The” for “The”

Cat-B = biological target: T7, Cat-B (Homo sapiens, UniProt P07858); test: Enzymatic cleavage by Cat-B (LC/MS, HPLC); assay type: biochemical; details: pH 5.5 MES buffer, 37 °C
T7 construct: purchased R&D systems 953CY
Procedure: as §1

[7] = design: method as in doi:10.1016/j.dyepig.2020.108598; details: reference value used for calculation; cited from earlier work

O=C(O)c1nn(Cc2ccc(Cl)cc2Cl)c2ccccc12 [lonidamine, reference compound]
time-dependent HK2 expression after washout (HK2): initial reduction in the intracellular HK2 level followed by eventual regeneration

VPF-KRRPIYPALAK-lonidamine [NanoTAC, supramolecular self-assembly of drug conjugates: HK2-targeting PROTAC, cathepsin B-cleavable peptide KRR and photosensitizer verteporfin]
ROS quantum yield (Φ) [1]: ≈ 0.7823
survival of TNBC mice ([2]; +L, n = 5, log-rank test): significantly prolonged survival
complete regression (CR), mice with CR / mice in group ([2]; +L (200 mW, 15 min)): 3/5
complete regression (CR), mice with CR / mice in group ([2]; −L): 0/5
reduction of ROS production under hypoxia compared with normoxia (4T1 cells [3]): 36.1%
migratory and invasive phenotypes (4T1 cells [4]): reduced migratory and invasive phenotypes
cleavage by MMP-9 [5]: no cleavage behavior
intratumoral Treg population, NanoTAC (+L) relative to NanoTAC (−L) [6]: 72.01%
intratumoral Treg population, NanoTAC (+L) relative to VPF (+L) [6]: 44.81%
cleavage by CASP3 (caspase-3 (CASP3)): no cleavage behavior
cleavage by Cat-L (Cat-L): no cleavage behavior
cleavage by Cat-E (Cat-E): no cleavage behavior
serum IFN-γ, fold of NanoTAC (+L)-treated CR mice over naive mice (rechallenged 4T1 TNBC): 1.33 fold
serum IL-6, fold of NanoTAC (+L)-treated CR mice over naive mice (rechallenged 4T1 TNBC): 1.32 fold
serum TNF-α, fold of NanoTAC (+L)-treated CR mice over naive mice (rechallenged 4T1 TNBC): 1.4 fold
cleavage by Cat-D (Cat-D): no cleavage behavior
intracellular HK2 level after treatment (HK2; 4T1 cells, 1 μM, 12 h, anti-HK2 staining, CLSM): significantly decreased intracellular HK2 levels
time-dependent HK2 expression after washout (HK2): sustained degradation of the target protein
cleavage in presence of Cat-B with irreversible cysteine protease inhibitor (Cat-B; Cat-B with Z-FA-FMK, LC/MS): no detectable cleavage
catalytic efficiency (kcat/KM) (Cat-B; NanoTAC 5-80 μM, 5 μg Cat-B, HPLC): 27,898 M^−1S^−1
time for conversion into PROTAC and lysine-conjugated VPF (K-VPF) with Cat-B (Cat-B; LC/MS): ≤ 1 h

verteporfin [VPF, reference compound]
complete regression (CR), mice with CR / mice in group ([2]; +L (200 mW, 15 min)): 0/5
reduction of ROS production under hypoxia compared with normoxia (4T1 cells [3]): 79.1%
ROS quantum yield (Φ) [7]: 0.78

From PMC12464334, “Reprogramming of cancer metabolism via photoresponsive nano-PROTAC enhances pyroptosis-mediated immunotherapy” (Signal Transduction and Targeted Therapy, 2025)
